pIC50: −log10 of the molar value.
How the values were obtained:
[1] = test system: CTLL mouse T cell line (Tc clone IL-2); assay: Cell proliferation test, CTLL; type: cell-based; conditions: 72 h, read-out: ED50 (concentration at which a 50% inhibition occurs)
Protocol: (§1) The cell culture in vitro proliferation test was used as an activity test for chemotherapeutics.
(§2) Clicks/RPMI 1640 medium (50:50) containing L-glutamine without any NaHCO3, in the form of powder for 10 1 (Seromed, Biochrom, Berlin, FRG) is dissolved in 9 l of double-distilled water, and sterile filtered into 900 ml bottles.
(§3) 900 ml of base medium are buffered using 9.5 ml of 7.5% strength sodium hydrogencarbonate solution and 5 ml of HEPES (N-2-hydroxyethyl-piperazine-N-2 ethanesulfonic acid) (Gibco, Eggenstein, FRG).
(§4) 900 ml of base medium plus 19 ml of NaHCO3 solution (7.5%; 10 ml of HEPES solution and 10 ml of L-glutamine solution (200 mM)).
(§5) For keeping the tumor cells and hybridoma cells, working medium containing 5% FCS is prepared. […]
(§6) The proliferation test was carried out in round bottom microtiter plates. […] In all tests, the values were determined four times. […] The value of the negative control was subtracted from all values determined and the difference of positive control minus negative control was set at 100%.
(§7) The plates were incubated at 37° C./5% CO2 for 72 h and the proliferation rate was determined correspondingly as with the mitogen-induced lymphocyte proliferation. […]

[2] = test system: HT-2 mouse T cell line (IL-2); assay: Cell proliferation test, HT-2; type: cell-based; conditions: 72 h, read-out: ED50 (concentration at which a 50% inhibition occurs)
Protocol: as §1, §2, §3, §4, §5, §6, §7

[3] = test system: CTL-J-K mouse T cell line (Tc, IL-2); assay: Cell proliferation test, CTL-J-K; type: cell-based; conditions: 72 h, read-out: ED50 (concentration at which a 50% inhibition occurs)
Protocol: as §1, §2, §3, §4, §5, §6, §7

[4] = test system: Cl 9/4 mouse T cell line (IL-4 dep.); assay: Cell proliferation test, Cl 9/4; type: cell-based; conditions: 72 h, read-out: ED50 (concentration at which a 50% inhibition occurs)
Protocol: as §1, §2, §3, §4, §5, §6, §7

[5] = test system: K III 5 mouse T cell line (Th, IL-2); assay: Cell proliferation test, K III 5; type: cell-based; conditions: 72 h, read-out: ED50 (concentration at which a 50% inhibition occurs)
Protocol: as §1, §2, §3, §4, §5, §6, §7

Spleen T (con A and PWM) = assay: Mitogen-induced lymphocyte proliferation, Spleen T; type: cell-based; conditions: Mus musculus, T-cell, 64 h, 48 h + 16 h with tritium thymidine, read-out: ED50 (concentration at which a 50% inhibition occurs)
Protocol: as §1, §2, §3, §4
(§8) Medium for mitogen-induced lymphocyte proliferation. Working medium containing 1% heat-inactivated (30 min, 56° C.) fetal calf serum (FCS) is prepared.
(§9) The mice are sacrificed by cervical dislocation and the spleens are removed under sterile conditions. The spleens are shredded on a sterile sieve having a mesh width of 80 "mesh" and are carefully transferred to a Petri dish containing working medium using the plunger of a plastic syringe (10 ml). […]
(§10) The group with mitogen additions and without preparation were defined as positive controls. […] The amount of radioactivity incorporated by these cells is measured in a beta counter (Packard, Tricarb 460c).

Spleen B (LPS) = assay: Mitogen-induced lymphocyte proliferation, Spleen B; type: cell-based; conditions: Mus musculus, B-cell, 64 h, 48 h + 16 h with tritium thymidine, read-out: ED50 (concentration at which a 50% inhibition occurs)
Protocol: as §1, §2, §3, §4, §8, §9, §10

[6] = test system: A20 2J mouse B cell tumor (BALB/c); assay: Cell proliferation test, A20 2J; type: cell-based; conditions: 72 h, read-out: ED50 (concentration at which a 50% inhibition occurs)
Protocol: as §1, §2, §3, §4, §5, §6, §7

[7] = test system: TRK 4 mouse B cell hybridoma; assay: Cell proliferation test, TRK 4; type: cell-based; conditions: 72 h, read-out: ED50 (concentration at which a 50% inhibition occurs)
Protocol: as §1, §2, §3, §4, §5, §6, §7

[8] = test system: TRK 5 mouse B cell hybridoma; assay: Cell proliferation test, TRK 5; type: cell-based; conditions: 72 h, read-out: ED50 (concentration at which a 50% inhibition occurs)
Protocol: as §1, §2, §3, §4, §5, §6, §7

[9] = test system: Bone marrow mouse (M-CSF, GM CSF); assay: Cell proliferation test, bone marrow; type: cell-based; conditions: 72 h, read-out: ED50 (concentration at which a 50% inhibition occurs)
Protocol: as §1, §2, §3, §4, §5, §6, §7

[10] = test system: WEHI 279 mouse B cell lymphoma; assay: Cell proliferation test, WEHI 279; type: cell-based; conditions: 72 h, read-out: ED50 (concentration at which a 50% inhibition occurs)
Protocol: as §1, §2, §3, §4, §5, §6, §7

P 388 D1 mouse Mo tumor = assay: Cell proliferation test, P 388 D1; type: cell-based; conditions: P388D1, 72 h, read-out: ED50 (concentration at which a 50% inhibition occurs)
Protocol: as §1, §2, §3, §4, §5, §6, §7

[11] = test system: 7TD1 mouse B cell hybridoma (IL-6); assay: Cell proliferation test, 7TD1; type: cell-based; conditions: 72 h, read-out: ED50 (concentration at which a 50% inhibition occurs)
Protocol: as §1, §2, §3, §4, §5, §6, §7

[12] = test system: PB-3C mouse mast cell line (IL-3); assay: Cell proliferation test, PB-3C; type: cell-based; conditions: 72 h, read-out: ED50 (concentration at which a 50% inhibition occurs)
Protocol: as §1, §2, §3, §4, §5, §6, §7

DA-1 mouse tumor (IL-3) = assay: Cell proliferation test, DA-1; type: cell-based; conditions: 72 h, read-out: ED50 (concentration at which a 50% inhibition occurs)
Protocol: as §1, §2, §3, §4, §5, §6, §7

7D4 rat hybridoma = assay: Cell proliferation test, 7D4; type: cell-based; conditions: 72 h, read-out: ED50 (concentration at which a 50% inhibition occurs)
Protocol: as §1, §2, §3, §4, §5, §6, §7

[13] = test system: A431 human epidermoid carcinoma; assay: Cell proliferation test, A431; type: cell-based; conditions: A-431, 72 h, read-out: ED50 (concentration at which a 50% inhibition occurs)
Protocol: as §1, §2, §3, §4, §5, §6, §7

[14] = test system: KB human epidermoid carcinoma; assay: Cell proliferation test, KB; type: cell-based; conditions: 72 h, read-out: ED50 (concentration at which a 50% inhibition occurs)
Protocol: as §1, §2, §3, §4, §5, §6, §7

[15] = test system: HFF human foreskin fibroblast; assay: Cell proliferation test, HFF; type: cell-based; conditions: 72 h, read-out: ED50 (concentration at which a 50% inhibition occurs)
Protocol: as §1, §2, §3, §4, §5, §6, §7

[16] = test system: HL-60 human promyelomonocytic leukemia; assay: Cell proliferation test, HL-60; type: cell-based; conditions: 72 h, read-out: ED50 (concentration at which a 50% inhibition occurs)
Protocol: as §1, §2, §3, §4, §5, §6, §7

[17] = Acute toxicity on oral administration, mouse; conditions: in vivo, NMRI mouse, 3 weeks, Litchfield and Wilcoxon
Protocol: (§11) Acute toxicity on oral administration
(§12) Compound 1 was administered orally to the mice or rats to determine the acute toxicity.
(§13) The LD50 values were determined according to Litchfield and Wilcoxon.
(§14) The weight of the NMRI mice (NMRI : Naval Medical Research Institute) is 20 to 25 g and that of the SD rats (SD: Sprague-Dawley) is 120 to 165 g. The mice were fasted for about 18 hours before the test. They are fed normally again 5 hours after administration of the substances tested. After 3 weeks, the animals were sacrificed by means of chloroform and dissected. 6 animals are used per dose.

[18] = Acute toxicity on oral administration, rat; conditions: in vivo, SD rat, 3 weeks, Litchfield and Wilcoxon
Protocol: as §11, §12, §13, §14

[19] = Acute toxicity after intraperitoneal administration, mouse; conditions: in vivo, ip, NMRI mouse, 3 weeks, Litchfield and Wilcoxon
Protocol: Acute toxicity after intraperitoneal administration
The acute toxicity after intraperitoneal administration of the test substances was carried out using NMRI mice (20 to 25 g) and SD rats (120 to 195 g). The test substance was suspended in a 1% strength sodium carboxymethyl cellulose solution. The various doses of the test substance were administered to the mice in a volume of 10 ml/kg of body weight and to the rats in a volume of 5 ml/kg of body weight. 10 animals were used per dose. After 3 weeks, the acute toxicity was determined according to the method of Litchfield and Wilcoxon.

Cc1oncc1C(=O)Nc1ccc(C(F)(F)F)cc1 [Compound 1, 5-methylisoxazole-4-carboxylic acid (4-trifluoromethyl)anilide]
pIC50 [1]: 4.30 to 4.40
pIC50 [2]: 4.30 to 4.40
pIC50 [3]: 4.30 to 4.40
pIC50 [4]: 4.60
pIC50 [5]: 5.52 to 6.00
pIC50 (Spleen T (con A and PWM)): 5.00
pIC50 (Spleen B (LPS)): 5.00
pIC50 [6]: 5.52 to 6.00
pIC50 [7]: 5.30
pIC50 [8]: 5.30
pIC50 [9]: 5.30
pIC50 [10]: ≥ 6.00
pIC50 (P 388 D1 mouse Mo tumor): 5.00
pIC50 [11]: 5.00
pIC50 [12]: 4.70
pIC50 (DA-1 mouse tumor (IL-3)): 5.30
pIC50 (7D4 rat hybridoma): ≥ 6.00
pIC50 [13]: 4.82
pIC50 [14]: 4.82
pIC50 [15]: 4.40
pIC50 [16]: 4.60
LD50 at 504 h [17]: 445 mg/kg
LD50 at 504 h [18]: 235 mg/kg

C/C(O)=C(\C#N)C(=O)Nc1ccc(C(F)(F)F)cc1 [Compound 2, N-(4-trifluoromethylphenyl)-2-cyano-3-hydroxycrotonamide]
LD50 at 504 h [18]: 160 mg/kg
LD50 at 504 h [19]: 100 to 200 mg/kg

— patent publication US5532259A, “Isoxazole-4-carboxamides and hydroxyalkylidenecyanoacetamides, pharmaceuticals containing these compounds and their use” (Hoechst Aktiengesellschaft, priority 1990, dated 1996)
